This passage reports IC50 results from US11214576B2, “2,3-dihydrofuro[2,3-b]pyridine compounds” (Eli Lilly and Company, priority 2018, dated 2022).

Molecules are shown by their SMILES.

human O-GlcNAc-β-N-acetylglucosaminidase (OGA), sequence (O60502 whole entry): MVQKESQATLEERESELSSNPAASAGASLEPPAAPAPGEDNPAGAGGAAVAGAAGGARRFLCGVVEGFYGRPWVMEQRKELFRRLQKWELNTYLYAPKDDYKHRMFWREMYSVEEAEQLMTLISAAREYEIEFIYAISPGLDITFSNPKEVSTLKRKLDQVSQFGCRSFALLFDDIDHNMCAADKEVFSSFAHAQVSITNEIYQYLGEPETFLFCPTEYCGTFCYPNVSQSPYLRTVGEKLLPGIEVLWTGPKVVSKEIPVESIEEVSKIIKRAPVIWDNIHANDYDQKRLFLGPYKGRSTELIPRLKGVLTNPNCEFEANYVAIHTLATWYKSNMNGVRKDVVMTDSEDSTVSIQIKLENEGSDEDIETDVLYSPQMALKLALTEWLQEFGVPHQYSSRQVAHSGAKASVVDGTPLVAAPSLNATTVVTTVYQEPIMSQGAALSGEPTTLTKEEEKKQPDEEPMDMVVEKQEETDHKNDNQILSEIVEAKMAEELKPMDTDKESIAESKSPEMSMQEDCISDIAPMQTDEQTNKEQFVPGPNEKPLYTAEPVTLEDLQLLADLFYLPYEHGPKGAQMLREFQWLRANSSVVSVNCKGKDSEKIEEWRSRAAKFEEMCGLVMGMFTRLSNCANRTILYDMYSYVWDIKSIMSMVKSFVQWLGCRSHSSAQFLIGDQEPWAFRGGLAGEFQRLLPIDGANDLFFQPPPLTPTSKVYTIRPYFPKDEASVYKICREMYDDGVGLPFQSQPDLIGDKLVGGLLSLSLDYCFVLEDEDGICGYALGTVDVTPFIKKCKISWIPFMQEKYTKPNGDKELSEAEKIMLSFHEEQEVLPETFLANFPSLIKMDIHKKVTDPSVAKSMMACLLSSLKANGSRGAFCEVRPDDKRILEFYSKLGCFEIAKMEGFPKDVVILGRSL

The test deals with human O-GlcNAc-β-N-acetylglucosaminidase (OGA) (Homo sapiens (Human), UniProt O60502). In words: In Vitro Human OGA Enzyme Assay. It is filed as biochemical. The note with it: full-length His-tagged human OGA; FD-GlcNAc substrate 6.7 μM; 30 min pre-incubation, 60 min reaction, pH 7. How it is done:
The nucleotide sequence encoding full-length human O-GlcNAc-β-N-acetylglucosaminidase (NM_012215) is inserted into pFastBacl (Invitrogen) vector with an N-terminal poly-histidine (HIS) tag. Baculovirus generation is carried out according to the Bac-to-Bac Baculovirus Expression system (Invitrogen) protocol. Sf9 cells are infected at 1.5×10^6 cells/mL using 10 mL of P1 virus per Liter of culture and incubated at 28° C. for 48 hrs. Cells are spun down, rinsed with PBS and the pellets stored at −80° C. The above OGA protein (His-OGA) is purified as follows: 4 L of cells are lysed in 200 mL of buffer containing 50 mM Tris, pH 8.0, 300 mM NaCl, 10% glycerol, 10 mM imidazole, 1 mM dithiothreitol (DTT), 0.1% Triton™ X-100, 4 tablets of protease inhibitors (complete EDTA-Free, Roche) for 45 min at 4° C. This cell lysate is then spun for 40 min at 16500 rpm at 4° C., and supernatant incubated with 6 mL of Ni-NTA resin (nickel-nitrilotriacetic acid) for 2 hours at 4° C.
Resin is then packed onto column and washed with 50 mM Tris, pH 8.0, 300 mM NaCl, 10% glycerol, 10 mM imidazole, 0.1% Triton™ X-100, 1 mM DTT, followed by 50 mM Tris, pH 8.0, 150 mM NaCl, 10 mM imidazole, 10% glycerol, 1 mM DTT. The proteins are eluted with 50 mM Tris, pH 8.0, 150 mM NaCl, 300 mM imidazole, 10% glycerol, 1 mM DTT. Pooled His-OGA containing fractions are concentrated to 6 ml and loaded onto Superdex75 (16/60). The protein is eluted with 50 mM Tris, pH 8.0, 150 mM NaCl, 10% glycerol, 2 mM DTT. Fractions containing His-OGA are pooled and protein concentration measured with BCA ([…]).
The OGA enzyme catalyses the removal of O-GlcNAc from nucleocytoplasmic proteins. To measure this activity Fluorescein di-N-acetyl-β-N-acetyl-D-glucosaminide (FD-GlcNAc, Kim, Eun Ju; Kang, Dae Ook; Love, Dona C.; Hanover, John A. Carbohydrate Research (2006), 341(8), 971-982) is used as a substrate at a final concentration of 6.7 μM (in a 384 well assay format). This fluorogenic substrate becomes fluorescent upon cleavage by OGA, so that the enzyme activity can be measured by the increase in fluorescence detected at 535 nm (excitation at 485 nm).
The assay buffer is prepared to give a final concentration of 50 mM […], 0.01% bovine serum albumin and 0.01% Triton™ X-100 in water, at pH 7. Compounds to be tested are diluted in pure dimethyl sulfoxide (DMSO) using ten point concentration response curves. Maximal compound concentration in the reaction mixture is 30 or 1 μM. […] Then, without stopping the reaction, fluorescence is read. IC50 values are calculated by plotting the normalized data vs. log of the compound and fitting the data using a four parameter logistic equation.
Regarding `Cc1nnc(C2CCN(C(C)c3nc4c(cc3F)CCO4)CC2)o1` (single isomer, unassigned; (-)) [Example 2, (−)-5-fluoro-6-[1-[4-(5-methyl-1,3,4-oxadiazol-2-yl)-1-piperidyl]ethyl]-2,3-dihydrofuro[2,3-b]pyridine], 0.00113 ± 0.00102 µM corresponded to half-maximal inhibition (IC50).

Take `Cc1nnc(C2CCN(C(C)c3ccc4c(n3)OCC4)CC2)o1` (single isomer, unassigned; (-)) [Example 1, (−)-6-[1-[4-(5-methyl-1,3,4-oxadiazol-2-yl)-1-piperidyl]ethyl]-2,3-dihydrofuro[2,3-b]pyridine]: half-maximal inhibition (IC50) was put at 0.00124 ± 0.00066 µM.

`Cc1nnc(C2CCN(C(C)c3ccc4c(n3)OCC4)CC2)o1` (single isomer, unassigned; (+)) [Example 3] displayed an IC50 of 0.611 µM.

Molecule `Cc1nnc(C2CCN(C(C)c3nc4c(cc3F)CCO4)CC2)o1` (single isomer, unassigned; (+)) [Example 4, (+)-5-fluoro-6-[1-[4-(5-methyl-1,3,4-oxadiazol-2-yl)-1-piperidyl]ethyl]-2,3-dihydrofuro[2,3-b]pyridine] came in with an IC50 of 2.66 ± 0.607 µM. This IC50 lies about 4.4-fold higher than the previous one.

As a reminder, the IC50 is the point on the concentration scale where inhibition reaches its midpoint. Higher therefore signals a need for much substance.
